Measured values published in patent publication US10597388B2, “Pyridazinone herbicides” (FMC CORPORATION, priority 2014, dated 2020).

Columns and labels:
Assay in all cases: Test E greenhouse herbicide test, pre- and postemergence
Type in all cases: in vivo
Conditions in all cases: Preemergence
[1] = test system: ragweed (common ragweed, Ambrosia elatior)
Summary of the method: (§1)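 Seedlings reaching 2–18 cm (1- to 4-leaf stage) received foliar treatment, while seeds in silt loam received a soil surface spray; the vehicle in each case was a non-phytotoxic solvent mixture including surfactant. Visual scoring versus controls followed 14–21 d later on a 0–100 scale.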

[2] = test system: kochia (Kochia scoparia)
Summary of the method: as §1

[3] = test system: corn (Zea mays)
Summary of the method: as §1

[4] = test system: arrowleaf sida (Sida rhombifolia)
Summary of the method: as §1

[5] = test system: soybean (Glycine max)
Summary of the method: as §1

[6] = test system: goosegrass (Eleusine indica)
Summary of the method: as §1

[7] = test system: surinam grass (Brachiaria decumbens)
Summary of the method: as §1

[8] = test system: velvetleaf (Abutilon theophrasti)
Summary of the method: as §1

[9] = test system: pigweed, palmer (palmer pigweed, Amaranthus palmeri)
Summary of the method: as §1

[10] = test system: panicum, fall (fall panicum, Panicum dichotomiflorum)
Summary of the method: as §1

[11] = test system: sandbur (southem sandbur, Cenchrus echinatus)
Summary of the method: as §1

[12] = test system: nightshade (eastern black nightshade, Solanum ptycanthum)
Summary of the method: as §1

[13] = test system: crabgrass, Brazilian (Brazilian crabgrass, Digitaria horizontalis)
Summary of the method: as §1

[14] = test system: lambsquarters (Chenopodium album)
Summary of the method: as §1

[15] = test system: foxtail, giant (giant foxtail, Setaria faberii)
Summary of the method: as §1

[16] = test system: johnsongrass (Sorghum halepense)
Summary of the method: as §1

[17] = test system: beggarticks (hairy beggarticks, Bidens pilosa)
Summary of the method: as §1

[18] = 62 g ai/ha, scale 0 to 100 (0 no effect, 100 complete control)
[19] = 125 g ai/ha, scale 0 to 100 (0 no effect, 100 complete control)
[20] = 31 g ai/ha, scale 0 to 100, 0 no effect, 100 complete control
[21] = 250 g ai/ha, visual, scale 0 no effect to 100 complete control
[22] = 125 g ai/ha, visual, scale 0 no effect to 100 complete control

CC(=O)Oc1c(C)nn(C)c(=O)c1-c1c(C)sc2c(C)cc(C)cc12 [Compound 27]
Plant response rating, Ragweed [1, 18]: 95 | Plant response rating, Ragweed [1, 19]: 100 | Plant response rating, Ragweed [1, 20]: 95 | Plant response rating, Ragweed [1, 21]: 100 | Plant response rating, Kochia [2, 18]: 25 | Plant response rating, Kochia [2, 20]: 0 | Plant response rating, Kochia [2, 22]: 80 | Plant response rating, Kochia [2, 21]: 100 | Plant response rating, Corn [3, 18]: 0 | Plant response rating, Corn [3, 20]: 0 | Plant response rating, Corn [3, 22]: 0 | Plant response rating, Corn [3, 21]: 0 | Plant response rating, Arrowleaf Sida [4, 18]: 65 | Plant response rating, Arrowleaf Sida [4, 20]: 40 | Plant response rating, Arrowleaf Sida [4, 22]: 75 | Plant response rating, Arrowleaf Sida [4, 21]: 35 | Plant response rating, Soybean [5, 18]: 0 | Plant response rating, Soybean [5, 19]: 0 | Plant response rating, Soybean [5, 20]: 0 | Plant response rating, Soybean [5, 21]: 0 | Plant response rating, Goosegrass [6, 18]: 75 | Plant response rating, Goosegrass [6, 20]: 35 | Plant response rating, Goosegrass [6, 22]: 80 | Plant response rating, Goosegrass [6, 21]: 85 | Plant response rating, Surinam Grass [7, 18]: 95 | Plant response rating, Surinam Grass [7, 19]: 100 | Plant response rating, Surinam Grass [7, 20]: 85 | Plant response rating, Surinam Grass [7, 21]: 100 | Plant response rating, Velvetleaf [8, 18]: 80 | Plant response rating, Velvetleaf [8, 19]: 95 | Plant response rating, Velvetleaf [8, 20]: 50 | Plant response rating, Velvetleaf [8, 21]: 100 | Plant response rating, Pigweed, Palmer [9, 18]: 60 | Plant response rating, Pigweed, Palmer [9, 19]: 85 | Plant response rating, Pigweed, Palmer [9, 21]: 85 | Plant response rating, Panicum, Fall [10, 18]: 100 | Plant response rating, Panicum, Fall [10, 19]: 100 | Plant response rating, Panicum, Fall [10, 20]: 100 | Plant response rating, Panicum, Fall [10, 21]: 100 | Plant response rating, Sandbur [11, 18]: 40 | Plant response rating, Sandbur [11, 19]: 90 | Plant response rating, Sandbur [11, 20]: 30 | Plant response rating, Sandbur [11, 21]: 90 | Plant response rating, Nightshade [12, 18]: 100 | Plant response rating, Nightshade [12, 19]: 95 | Plant response rating, Nightshade [12, 20]: 90 | Plant response rating, Nightshade [12, 21]: 98 | Plant response rating, Crabgrass, Brazil [13, 18]: 70 | Plant response rating, Crabgrass, Brazil [13, 20]: 70 | Plant response rating, Crabgrass, Brazil [13, 22]: 95 | Plant response rating, Crabgrass, Brazil [13, 21]: 95 | Plant response rating, Lambsquarters [14, 18]: 100 | Plant response rating, Lambsquarters [14, 20]: 100 | Plant response rating, Lambsquarters [14, 22]: 100 | Plant response rating, Lambsquarters [14, 21]: 100 | Plant response rating, Foxtail, Giant [15, 18]: 98 | Plant response rating, Foxtail, Giant [15, 20]: 95 | Plant response rating, Foxtail, Giant [15, 22]: 100 | Plant response rating, Foxtail, Giant [15, 21]: 100 | Plant response rating, Johnsongrass [16, 18]: 75 | Plant response rating, Johnsongrass [16, 20]: 70 | Plant response rating, Johnsongrass [16, 22]: 75 | Plant response rating, Johnsongrass [16, 21]: 70 | Plant response rating, Beggarticks [17, 18]: 100 | Plant response rating, Beggarticks [17, 20]: 90 | Plant response rating, Beggarticks [17, 22]: 100 | Plant response rating, Beggarticks [17, 21]: 100
